This passage reports IC50 and EC50 results from patent US11286263B2, “Macrocyclic fluorine substituted indole derivatives” (The Broad Institute, Inc., priority 2017, dated 2022).

The subject of series [1] is SUDHL5. The series is described as follows: Induction of cytotoxicity, SUDHL5 (Assay 6). To be noted: read-out: IC50 Cytotox SUDHL5 [M] (median), SUDHL5 cells, 5 h, CellTiter-Glo.
Series [2] concerns A2780. The experiment in a line: Antiproliferation assay A2780 (Assay 7). It counts as cell-based. To be noted: A2780 cells, CellTiter-Glo, single determinations, read-out: IC50 Antiproli A2780. Summed up: (§1)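 Proliferation is determined by CellTiter-Glo luminescence following 72 h incubation with compound at 37 °C, relative to a time-zero plate measured at plating.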
In series [3] the test system is SUDHL10. The experiment in a line: Induction of cytotoxicity, SUDHL10 (Assay 6). The note with it: read-out: IC50 Cytotox SUDHL10 [M] (median), SUDHL10 cells, 5 h, CellTiter-Glo.
Series [4] relates to SUDHL5. The series is described as follows: Induction of caspase-3/7 activity, SUDHL5 (Assay 4). It is filed as cell-based. The note with it: SUDHL5 cells. Summed up: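 DLBCL lines treated with compounds for 3 h at 37° C.; caspase-3/7 activity read by Caspase-Glo 3/7 luminescence. Medium-only background subtracted; EC50 fitted with bottom fixed at 1 and top set to reference compound's maximal induction.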

For series [5], the system named is MV-4-11. The experiment in a line: Antiproliferation assay MV-4-11 (Assay 7). It counts as cell-based. To be noted: MV-4-11 cells, 72 h, CellTiter-Glo; single determinations; read-out: IC50 Antiproli MV-4-11. In outline:
as §1

Structures are written as SMILES. Where “and” joins values, the source holds several entries; their conditions need not be identical. Equal entries are not always repeated. Structures can show the parent of a compound that is named as a salt. Where two headings read alike, the source gives them in different places.

Turning to `Cc1c2c(nn1C)COCCCCn1c(C(=O)O)c(CCCOc3cccc4ccccc34)c3ccc(F)c-2c31` (racemic) [Example 2, (rac)-4-fluoro-2,3-dimethyl-7-[3-(naphthalen-1-yloxy)propyl]-2,10,11,12,13,15-hexahydro-pyrazolo[4′,3′:9,10][1,6]oxazacycloundecino[8,7,6-hi]indole-8-carboxylic acid], the IC50 is 1e-06 M in series [1] (Homo sapiens, SU-DHL-5, 5 h); 12200 nM and 14500 nM in series [2] (72 h, listed as 02); 13000 nM in series [2] (Homo sapiens, A2780, 72 h); 1.6e-06 M in series [3] (Homo sapiens, SU-DHL10, 5 h). Moreover, in series [4] (Homo sapiens, SU-DHL-5, 3 h, Caspase-Glo 3/7, median), the concentration for a half-maximal effect (EC50) came out at 600 nM.
For the compound `Cc1c2c(nn1C)COCCCCn1c(C(=O)O)c(CCCOc3cccc4ccccc34)c3ccc(F)c-2c31` (single isomer, unassigned; enantiomer 1) [Example 3, 4-fluoro-2,3-dimethyl-7-[3-(naphthalen-1-yloxy)propyl]-2,10,11,12,13,15-hexahydropyrazolo-[4′,3′:9,10][1,6]oxazacycloundecino[8,7,6-hi]indole-8-carboxylic acid-N-ethylethanamine salt (enantiomer 1)], the IC50 in series [1] was 7.7e-07 M; in series [2] (72 h, listed as 03), 23800 nM and 17600 nM and 15300 nM; in series [3] (Homo sapiens, SU-DHL10, 5 h), 1.1e-06 M. This compound also came in with an EC50 in series [4] (3 h, Caspase-Glo 3/7, median) of 650 nM.
Turning to `CCc1c2c(nn1C)COCCCCn1c(C(=O)O)c(CCCOc3cccc4cc(F)ccc34)c3ccc(F)c-2c31` (single isomer, unassigned; enantiomer 1) [Example 22, 3-ethyl-4-fluoro-7-{3-[(6-fluoronaphthalen-1-yl)oxy]propyl}-2-methyl-2,10,11,12,13,15-hexahydropyrazolo[4′,3′:9,10][1,6]oxazacycloundecino[8,7,6-hi]indole-8-carboxylic acid-N-ethylethanamine salt (enantiomer 1)], the IC50 turned out to be 3.3e-07 M in series [1]; 3880 nM in series [2] (Homo sapiens, A2780, 72 h); 5.5e-07 M in series [3]. In series [4] (3 h, Caspase-Glo 3/7, median), this compound gave an EC50 of 210 nM.
For `CCc1c2c(nn1C)COCCCCn1c(C(=O)O)c(CCCOc3ccc(F)c4ccccc34)c3ccc(F)c-2c31` (single isomer, unassigned; enantiomer 1) [Example 27, 3-ethyl-4-fluoro-7-{3-[(4-fluoronaphthalen-1-yl)oxy]propyl}-2-methyl-2,10,11,12,13,15-hexahydropyrazolo[4′,3′:9,10][1,6]oxazacycloundecino[8,7,6-hi]indole-8-carboxylic acid-N-ethylethanamine salt (enantiomer 1)], the IC50 in series [1] was 1e-06 M; in series [3] it was 1.8e-06 M. In series [4] (3 h, Caspase-Glo 3/7, median), this compound yielded an EC50 of 660 nM.
Regarding `CCc1nn(C)c2c1-c1c(F)ccc3c(CCCOc4cccc5cc(F)ccc45)c(C(=O)O)n(c13)CCCCOC2` (single isomer, unassigned; enantiomer 1) [Example 39, 3-ethyl-4-fluoro-7-{3-[(6-fluoronaphthalen-1-yl)oxy]propyl}-1-methyl-1,10,11,12,13,15-hexahydropyrazolo[4′,3′:9,10][1,6]oxazacycloundecino[8,7,6-hi]indole-8-carboxylic acid-N-ethylethanamine salt (enantiomer 1)], the IC50 was 6.2e-07 M in series [1], 4840 nM in series [2] (72 h) and 1e-06 M in series [3]. The same compound registered an EC50 in series [4] (3 h, Caspase-Glo 3/7, median) of 560 nM.
As to `CCc1c2c(nn1C)COCCCCn1c(C(=O)O)c(CCCOc3cccc4cc(F)ccc34)c3ccc(F)c-2c31` (single isomer, unassigned; enantiomer 2) [Example 23, 3-ethyl-4-fluoro-7-{3-[(6-fluoronaphthalen-1-yl)oxy]propyl}-2-methyl-2,10,11,12,13,15-hexahydropyrazolo[4′,3′:9,10][1,6]oxazacycloundecino[8,7,6-hi]indole-8-carboxylic acid-N-ethylethanamine salt (enantiomer 2)], the IC50 amounted to 3.2e-06 M in series [1], 15500 nM in series [5] and 9e-06 M in series [3]. The compound further came in with an EC50 in series [4] (3 h, Caspase-Glo 3/7, median) of 2700 nM.
